Assay results as given in patent US11547681B2, “N-acylethanolamide derivatives and uses thereof” (ELIEM THERAPEUTICS, INC., priority 2016, dated 2023).

Test: in vitro
Conditions: male, CD-1, mouse; for Concentration (μM) of analyte PEA, 0 min / Concentration (μM) of analyte PEA, 10 min / Concentration (μM) of analyte PEA, 20 min / Concentration (μM) of analyte PEA, 30 min / Concentration (μM) of analyte PEA, 60 min / % Remaining of Initial (n = 1), 0 min / % Remaining of Initial (n = 1), 10 min / % Remaining of Initial (n = 1), 20 min / % Remaining of Initial (n = 1), 30 min / % Remaining of Initial (n = 1), 60 min / Concentration, analyte PEA / % Remaining of Initial (n = 1) / Measured concentration of PEA (analyte) / % Remaining of Initial: 1 μM
Procedure: (§1) Reaction mixture, minus cofactors, was prepared as described below. Test article was added into the reaction mixture at a final concentration of 1 μM. […] An aliquot of the reaction mixture (without cofactor cocktail) was equilibrated in a shaking water bath at 37° C. for 3 minutes. The reaction was initiated by the addition of cofactor cocktail, and the mixture was incubated in a shaking water bath at 37° C. Aliquots (100 μL) were withdrawn at 0, 10, 20, 30, and 60 minutes. Test article samples were immediately combined with 300 μL of ice-cold acetonitrile containing 1% formic acid. Control samples were immediately combined with 400 μL of ice-cold 50/50 acetonitrile (ACN)/dH2O containing 0.1% formic acid and internal standard to terminate the reaction. Samples were then mixed and centrifuged to precipitate proteins. Calibration standards were prepared in matched matrix. Samples and standards were assayed by LC-MS/MS using electrospray ionization for both the dosed prodrug and the expected drug (PEA). Analytical conditions are outlined in Appendix 8-1. Test article concentration at each time point was compared to test article concentration at time 0 to determine the percent remaining at each time point. Halflives were calculated using GraphPad software, fitting to a single-phase exponential decay equation.
as §1, with “for 5” for “for 3”, “minutes. Reaction” for “minutes. The reaction”, “and” for “and the”, “both” for “both the”, “Appendix 10-1.” for “Appendix 8-1.”
Reaction mixture, minus cofactors, was prepared as described below. Test article was added into the reaction mixture at a final concentration of 1 μM. […] An aliquot of the reaction mixture (without cofactor cocktail) was equilibrated in a shaking water bath at 37° C. for 3 minutes. Reaction was initiated by the addition of cofactor cocktail, and the mixture was incubated in a shaking water bath at 37° C. Aliquots (100 μL) were withdrawn at 0, 10, 20, 30, and 60 minutes. Test article samples were immediately combined with 300 μL of ice-cold acetonitrile containing 1% formic acid. Control samples were immediately combined with 400 μL of ice-cold 50/50 acetonitrile (ACN)/dH2O containing 0.1% formic acid and internal standard to terminate the reaction. Samples were then mixed and centrifuged to precipitate proteins. Calibration standards were prepared in matched matrix. Samples and standards were assayed by LC-MS/MS using electrospray ionization for both dosed prodrug and expected drug (PEA). Analytical conditions are outlined in Appendix 13-1. Test article concentration at each time point was compared to test article concentration at time 0 to determine the percent remaining at each time point. Halflives were calculated using GraphPad software, fitting to a single-phase exponential decay equation.

Row | SMILES | Concentration (μM) of analyte PEA, 0 min (0 min) [µM] | Concentration (μM) of analyte PEA, 10 min (10 min) [µM] | Concentration (μM) of analyte PEA, 20 min (20 min) [µM] | Concentration (μM) of analyte PEA, 30 min (30 min) [µM] | Concentration (μM) of analyte PEA, 60 min (60 min) [µM] | % Remaining of Initial (n = 1), 0 min (s9, 0 h) [%] | % Remaining of Initial (n = 1), 10 min (s9, 10 min) [%] | % Remaining of Initial (n = 1), 20 min (s9, 20 min) [%] | % Remaining of Initial (n = 1), 30 min (s9, 0.5 h) [%] | % Remaining of Initial (n = 1), 60 min (s9, 1 h) [%] | microsomal CLint at 1 μM (s9, CLint (mL/min/mg protein)) [µL/min/mg] | half-life at 1 μM (s9, Half-life (min)) [min] | microsomal CLint at 1 μM (s9, CLint) [µL/min/mg] | half-life at 1 μM (s9, Half-life) [min] | further results
1 | CCCCCCCCCCCCCCCC(=O)NCCOC(=O)CCC(=O)OCC(COC(=O)CCC)OC(=O)CCC (stereo not drawn) [Compound I-11] | 0 | 0.021 | 0.059 | 0.12 | 0.084 | 100 | <1.0 | <1.0 | <1.0 | <1.0 | > 691 | < 1 | – | – | –
2 | CCCCC/C=C\C/C=C\CCCCCCCC(=O)OCC(COC(=O)CCC(=O)OCCNC(=O)CCCCCCCCCCCCCCC)OC(=O)CCCCCCC/C=C\C/C=C\CCCCC (stereo not drawn) [Compound I-13] | – | – | – | – | – | – | – | – | – | – | – | – | < 11.6 | > 60 | Concentration, analyte PEA (0 min): 12 nM; Concentration, analyte PEA (10 min): 50 nM; Concentration, analyte PEA (20 min): 73 nM; Concentration, analyte PEA (30 min): 96 nM; Concentration, analyte PEA (60 min): 89 nM; % Remaining of Initial (n = 1) (s9, 0 h): 100%; % Remaining of Initial (n = 1) (s9, 10 min): 97%; % Remaining of Initial (n = 1) (s9, 20 min): 71%; % Remaining of Initial (n = 1) (s9, 0.5 h): 81%; % Remaining of Initial (n = 1) (s9, 1 h): 57%; microsomal CLint at 1 μM (s9, CLint, calculated (in parentheses)): 9.51 µL/min/mg; half-life at 1 μM (s9, Half-life, calculated (in parentheses)): 73 min
3 | CCCCC/C=C\C/C=C\CCCCCCCC(=O)OCCNC(=O)CCCCCCCCCCCCCCC [Compound I-6] | 0.12 | 0.14 | 0.17 | 0.15 | 0.17 | 100 | 62 | 69 | 61 | 53 | < 11.6 | > 60 | – | – | microsomal CLint at 1 μM (s9, CLint (mL/min/mg protein), calculated value in parentheses): 10.5 µL/min/mg; half-life at 1 μM (s9, Half-life (min), calculated half-life in parentheses): 66 min
4 | CCCCCCCCCCCCCCCC(=O)NCCOC(=O)CCC(=O)OCC(COC(=O)CCCCCCC)OC(=O)CCCCCCC (stereo not drawn) [Compound I-3, PEA-Succinate-Glycerol-Di-Caprylic] | 0 | 0.026 | 0.024 | 0.026 | 0.043 | 100 | 68 | 59 | 49 | 33 | 21.1 | 33 | – | – | –
5 | CCCCCCCCCCCCCCCC(=O)NCCOC(=O)CCC [Compound I-2] | 0.52 | 0.50 | 0.52 | 0.45 | 0.45 | 100 | <1.0 | <1.0 | <1.0 | <1.0 | > 691 | < 1 | – | – | –
6 | CC/C=C\C/C=C\C/C=C\C/C=C\C/C=C\CCCC(=O)OCCNC(=O)CCCCCCCCCCCCCCC [Compound I-5] | 0.050 | 0.11 | 0.076 | 0.093 | 0.14 | 100 | 68 | 67 | 66 | 49 | – | – | – | – | –

More lines, main results first:

Row | Concentration (μM) of analyte PEA, 0 min (0 min) [µM] | Concentration (μM) of analyte PEA, 10 min (10 min) [µM] | Concentration (μM) of analyte PEA, 20 min (20 min) [µM] | Concentration (μM) of analyte PEA, 30 min (30 min) [µM] | Concentration (μM) of analyte PEA, 60 min (60 min) [µM] | % Remaining of Initial (n = 1), 0 min (s9, 0 h) [%] | % Remaining of Initial (n = 1), 10 min (s9, 10 min) [%] | % Remaining of Initial (n = 1), 20 min (s9, 20 min) [%] | % Remaining of Initial (n = 1), 30 min (s9, 0.5 h) [%] | % Remaining of Initial (n = 1), 60 min (s9, 1 h) [%] | microsomal CLint at 1 μM (s9, CLint (mL/min/mg protein)) [µL/min/mg] | half-life at 1 μM (s9, Half-life (min)) [min] | microsomal CLint at 1 μM (s9, CLint) [µL/min/mg] | half-life at 1 μM (s9, Half-life) [min] | SMILES | further results
7 | 0.033 | 0.24 | 0.29 | 0.39 | 0.38 | 100 | 59 | 35 | 27 | 5.7 | – | – | – | – | CCCCCCCCCCCCCCCC(=O)NCCOC(=O)CCC(=O)OC[C@H]1O[C@@](CO)(O[C@H]2O[C@H](CO)[C@@H](O)[C@H](O)[C@H]2O)[C@@H](O)[C@@H]1O [Compound I-7] | –
8 | 0.0024 | 0.12 | 0.15 | 0.19 | 0.23 | 100 | 56 | 33 | 21 | 6.5 | 53.7 | 13 | – | – | CCCCCCCCCCCCCCCC(=O)NCCOC(=O)CCC(=O)OCC(O)CO (stereo not drawn) [Compound I-9] | –
9 | – | – | – | – | – | – | – | – | – | – | – | – | > 69.3 | < 10 | CCCCCCCCCCCCCCCC(=O)NCCOC(=O)CCC(=O)OC(COC(=O)CCC)COC(=O)CCC [Compound I-16] | Measured concentration of PEA (analyte) (0 min): 0 µM; Measured concentration of PEA (analyte) (10 min): 0.10 µM; Measured concentration of PEA (analyte) (20 min): 0.17 µM; Measured concentration of PEA (analyte) (30 min): 0.18 µM; Measured concentration of PEA (analyte) (60 min): 0.26 µM; % Remaining of Initial (s9, 0 h): 100%; % Remaining of Initial (s9, 10 min): 2.0%; % Remaining of Initial (s9, 20 min): <1.0%; % Remaining of Initial (s9, 0.5 h): <1.0%; % Remaining of Initial (s9, 1 h): <1.0%
10 | – | – | – | – | – | – | – | – | – | – | – | – | 38.9 | 18 | CCCCCCCCCCCCCCCC(=O)NCCOC(=O)CCC(=O)OC(CO)CO [Compound I-8] | Measured concentration of PEA (analyte) (0 min): 0.012 µM; Measured concentration of PEA (analyte) (10 min): 0.12 µM; Measured concentration of PEA (analyte) (20 min): 0.19 µM; Measured concentration of PEA (analyte) (30 min): 0.22 µM; Measured concentration of PEA (analyte) (60 min): 0.26 µM; % Remaining of Initial (s9, 0 h): 100%; % Remaining of Initial (s9, 10 min): 65%; % Remaining of Initial (s9, 20 min): 45%; % Remaining of Initial (s9, 0.5 h): 31%; % Remaining of Initial (s9, 1 h): 12%
